Results from patent US20040024055A1, “Pharmaceutical composition containing the exract of saururus chinensis baill useful as an anticancer agent and a process for the preparation thereof” (priority 2000, published 2004).
Converted amounts (≈) assume the structure as drawn.

Tests used:
NIH-3T3 [1] = experiment: Adhesion of cell to Laminin; type: cell-based, mouse
Description: (§1) After treating HNP-98701 on tissue culture plate coated with the matrices, cancer cell was attached thereupon. To be specific, 50 μl/ml of […], 2 μg/ml of laminin, 2 μg/ml of collagen and 2 μg/ml of gelatin were coated on the surface of 96-well microplate (Corning Co.) per well. After solidifying for 2 hr, HNP-98701 was added to each well and treated for 1 hr. […] After treating the substances for 1 hr, cancer cell was added to each cell, and it was cultured for 3 hr. […] After culturing these cell lines for 3 hr, they were centrifuged. After collecting biomass only, it was washed with distilled water or PBS buffer solution for three times. […] Then, absorbance was measured at 560-405 nm with automatic Eliza detector (Molecular […] Corp., USA). […] Each experiment was performed for three times repeatedly.

HeLa = experiment: MTT analysis, anticancer activity; type: cell-based, human; conditions: Homo sapiens, HeLa, 48 hr
A431 = experiment: MTT analysis, anticancer activity; type: cell-based, human; conditions: Homo sapiens, A-431, 48 hr
MCF-7 = experiment: MTT analysis, anticancer activity; type: cell-based, human; conditions: Homo sapiens, MCF7; MTT, 48 hr; read-out: IC50 MCF-7
CPAE = experiment: MTT analysis, cytotoxicity against normal cell line; type: cell-based, bovine; conditions: Bos taurus; MTT, 48 hr
NIH-3T3 [2] = experiment: Adhesion of cell to Matri-Gel; type: cell-based, mouse
Description: as §1

Hep-2 [3] = experiment: Adhesion of cancer cell to Laminin; type: cell-based, human
Description: as §1

SK-MEL-28 [4] = experiment: Adhesion of cancer cell to Laminin; type: cell-based, human
Description: as §1

SK-Hep-1 [5] = experiment: Adhesion of cancer cell to Laminin; type: cell-based, human
Description: as §1

[6] = test system: PC-3 prostate cancer cell line; experiment: MTT analysis, anticancer activity; type: cell-based, human; conditions: Homo sapiens, 48 hr
Description: (§2) To be specific, SK-Hep-1 cell, which is liver cancer cell line, was added to 96-well microplate (Falcon, USA) with the concentration of 3×10^5 cells/ml by 100 μl per well. Each extracted and separated substance dissolved in DMSO was added to the well by 100 μl for the final concentration to be from 50 μg/ml to 0.0244 μg/ml, with 200 μl of final volume. Each cell was cultured for 48 hr in a culture medium of 37° C. and 5% CO2. After cultivation, 20 μl of phosphate buffer solution containing 5 mg/ml of MTT (3-[4,5-dimethylthiazol-2-yl]-2,5-diphenyltetrazoliumbromide, Sigma Co.) reagent was added to each well, and then cultured for 4 hr. After taking 100 μl of supernant from each culture medium, 100 μl of 0.04N hydrochloric acid-isopropanol was added. After letting alone overnight, absorbance was measured at 560 nm using automatic Eliza detector (Molecular Divices Corp., USA). Anticancer activity of each extracted and separated substance was calculated from the absorbance value by Equation 1 and was expressed in terms of cell.
(§3) Average Existence Rate(%)=(Absorbance of Treated Group)/(Absorbance of Control Group)×100

NCI-H69 = experiment: MTT analysis, anticancer activity; type: cell-based, human; conditions: Homo sapiens, NCI-H69; MTT, 48 hr
HS27 = experiment: MTT analysis, cytotoxicity against normal cell line; type: cell-based, human; conditions: Homo sapiens, HS27; MTT, 48 hr
HS-746T = experiment: MTT analysis, anticancer activity; type: cell-based, human; conditions: Homo sapiens, Hs746T; MTT, 48 hr
SK-Hep-1 [7] = experiment: Adhesion of cancer cell to Matri-Gel; type: cell-based, human
Description: as §1

NIH-3T3 [8] = experiment: MTT analysis, cytotoxicity against normal cell line; type: cell-based, mouse; conditions: Mus musculus, NIH3T3; MTT, 48 hr
SK-BR-3 = experiment: MTT analysis, anticancer activity; type: cell-based, human; conditions: Homo sapiens, SK-BR-3, 48 hr
Hep-2 [9] = experiment: MTT analysis, anticancer activity; type: cell-based, human; conditions: Homo sapiens, HEp-2; MTT, 48 hr; read-out: IC50 Hep-2
HT1080 = experiment: MTT analysis, anticancer activity; type: cell-based, human; conditions: Homo sapiens, HT-1080, 48 hr
CHO = experiment: MTT analysis, cytotoxicity against normal cell line; type: cell-based, Chinese hamster; conditions: Cricetulus griseus, CHO; MTT, 48 hr
LoVo = experiment: MTT analysis, anticancer activity; type: cell-based, human; conditions: Homo sapiens, LoVo; MTT, 48 hr
HT-29 = experiment: MTT analysis, anticancer activity; type: cell-based, human; conditions: Homo sapiens, HT-29; MTT, 48 hr
BT-549 = experiment: MTT analysis, anticancer activity; type: cell-based, human; conditions: Homo sapiens, BT-549; MTT, 48 hr
NIH-3T3 [10] = experiment: Adhesion of cell to Gelatin; type: cell-based, mouse
Description: as §1

KATO-III = experiment: MTT analysis, anticancer activity; type: cell-based, human; conditions: Homo sapiens, KATO III; MTT, 48 hr; read-out: IC50 KATO-III
HS-578T = experiment: MTT analysis, anticancer activity; type: cell-based, human; conditions: Homo sapiens, Hs-578T; MTT, 48 hr
[11] = test system: SK-Hep-1 liver cancer cell line; experiment: MTT analysis, anticancer activity; type: cell-based, human; conditions: Homo sapiens, SK-HEP1, 48 hr
Description: as §2, §3

T-47D = experiment: MTT analysis, anticancer activity; type: cell-based, human; conditions: Homo sapiens, T47D, 48 hr
293 = experiment: MTT analysis, cytotoxicity against normal cell line; type: cell-based, human; conditions: Homo sapiens, HEK293; MTT, 48 hr
Hep-2 [12] = experiment: Adhesion of cancer cell to Collagen; type: cell-based, human
Description: as §1

SK-MEL-28 [13] = experiment: Adhesion of cancer cell to Collagen; type: cell-based, human
Description: as §1

SK-Hep-1 [14] = experiment: Adhesion of cancer cell to Collagen; type: cell-based, human
Description: as §1

T98G = experiment: MTT analysis, anticancer activity; type: cell-based, human; conditions: Homo sapiens, T98G, 48 hr

COc1cccc2c1C(=O)c1c(O)c3c(c(O)c1C2=O)C[C@@](O)(C(=O)CO)C[C@@H]3O[C@H]1C[C@H](N)[C@H](O)[C@H](C)O1 [Adriamycin, adriamycin (doxorubicin)]
Adhesion NIH-3T3 (%) (NIH-3T3 [1]; 0.1 μg/ml): 107.38% | Adhesion NIH-3T3 (%) (NIH-3T3 [1]; 1 μg/ml): 103.07% | Adhesion NIH-3T3 (%) (NIH-3T3 [1]; 10 μg/ml): 91.63% | IC50 (HeLa): 0.703 µg/mL (≈ 1.29 µM) | IC50 (A431): 0.0675 µg/mL (≈ 0.124 µM) | IC50 (MCF-7): 0.134 µg/mL (≈ 0.247 µM) | IC50 (CPAE): 0.0208 µg/mL (≈ 0.0383 µM) | Adhesion NIH-3T3 (%) (NIH-3T3 [2]; 0.1 μg/ml): 115.00% | Adhesion NIH-3T3 (%) (NIH-3T3 [2]; 1 μg/ml): 108.65% | Adhesion NIH-3T3 (%) (NIH-3T3 [2]; 10 μg/ml): 104.23% | Adhesion Hep-2 (%) (Hep-2 [3]; 0.1 μg/ml): 106.76% | Adhesion Hep-2 (%) (Hep-2 [3]; 1 μg/ml): 105.13% | Adhesion Hep-2 (%) (Hep-2 [3]; 10 μg/ml): 98.75% | Adhesion SK-MEL-28 (%) (SK-MEL-28 [4]; 0.1 μg/ml): 108.40% | Adhesion SK-MEL-28 (%) (SK-MEL-28 [4]; 1 μg/ml): 109.66% | Adhesion SK-MEL-28 (%) (SK-MEL-28 [4]; 10 μg/ml): 113.03% | Adhesion SK-Hep-1 (%) (SK-Hep-1 [5]; 0.1 μg/ml): 96.18% | Adhesion SK-Hep-1 (%) (SK-Hep-1 [5]; 1 μg/ml): 96.92% | Adhesion SK-Hep-1 (%) (SK-Hep-1 [5]; 10 μg/ml): 95.86% | IC50 [6]: 0.575 µg/mL (≈ 1.06 µM) | IC50 (NCI-H69): 0.168 µg/mL (≈ 0.308 µM) | IC50 (HS27): 0.218 µg/mL (≈ 0.401 µM) | IC50 (HS-746T): > 50 µg/mL | Adhesion SK-Hep-1 (%) (SK-Hep-1 [7]; 0.1 μg/ml): 99.04% | Adhesion SK-Hep-1 (%) (SK-Hep-1 [7]; 1 μg/ml): 95.93% | Adhesion SK-Hep-1 (%) (SK-Hep-1 [7]; 10 μg/ml): 88.74% | IC50 (NIH-3T3 [8]): 0.496 µg/mL (≈ 0.913 µM) | IC50 (SK-BR-3): 0.705 µg/mL (≈ 1.3 µM) | IC50 (Hep-2 [9]): 0.087 µg/mL (≈ 0.16 µM) | IC50 (HT1080): 0.719 µg/mL (≈ 1.32 µM) | IC50 (CHO): 5.22 µg/mL (≈ 9.61 µM) | IC50 (LoVo): 0.0538 µg/mL (≈ 0.099 µM) | IC50 (HT-29): 0.413 µg/mL (≈ 0.759 µM) | IC50 (BT-549): 0.438 µg/mL (≈ 0.806 µM) | Adhesion NIH-3T3 (%) (NIH-3T3 [10]; 0.1 μg/ml): 108.67% | Adhesion NIH-3T3 (%) (NIH-3T3 [10]; 1 μg/ml): 108.86% | Adhesion NIH-3T3 (%) (NIH-3T3 [10]; 10 μg/ml): 105.81% | IC50 (KATO-III): 0.342 µg/mL (≈ 0.628 µM) | IC50 (HS-578T): 0.469 µg/mL (≈ 0.862 µM) | IC50 [11]: 0.282 µg/mL (≈ 0.518 µM) | IC50 (T-47D): 0.255 µg/mL (≈ 0.469 µM) | IC50 293: < 0.008 µg/mL | Adhesion Hep-2 (%) (Hep-2 [12]; 0.1 μg/ml): 91.10% | Adhesion Hep-2 (%) (Hep-2 [12]; 1 μg/ml): 93.11% | Adhesion Hep-2 (%) (Hep-2 [12]; 10 μg/ml): 88.85% | Adhesion SK-MEL-28 (%) (SK-MEL-28 [13]; 0.1 μg/ml): 94.27% | Adhesion SK-MEL-28 (%) (SK-MEL-28 [13]; 1 μg/ml): 94.49% | Adhesion SK-MEL-28 (%) (SK-MEL-28 [13]; 10 μg/ml): 94.71% | Adhesion SK-Hep-1 (%) (SK-Hep-1 [14]; 0.1 μg/ml): 98.83% | Adhesion SK-Hep-1 (%) (SK-Hep-1 [14]; 1 μg/ml): 97.89% | Adhesion SK-Hep-1 (%) (SK-Hep-1 [14]; 10 μg/ml): 103.28% | IC50 (T98G): 1.61 µg/mL (≈ 2.97 µM)
